Values quoted from earlier work in patent publication US8097644B2, “Indole compounds having sphingosine-1-phosphate (S1P) receptor antagonist” (Allergan, Inc., priority 2006, dated 2012).

Columns and labels:
[1] = test system: perfused porcine eyes; settings: perfused porcine eyes (IOVS 45, 2263; 2004)
[2] = test system: cardiac G protein-gated potassium channel IKACh; settings: whole-cell recordings

| SMILES | decrease of outflow facility [1] | myocytes responding to acetylcholine in which an inwardly rectifying potassium current was evoked [2] |
| --- | --- | --- |
| CCCCCCCCCCCCC/C=C/[C@@H](O)[C@@H](N)COP(=O)(O)O [Example S1P, Sphingosine-1-Phosphate] | > 30% |  |
| CCCCCCCCc1ccc(CC[C@](N)(CO)COP(=O)(O)O)cc1 [FTY720-P] |  | ~90% |
